≈ marks a conversion by molar mass, not a printed value.
Experiments:
[1] = molecular target: T1, Orexin/Hypocretin receptor type 1 (Homo sapiens) (UniProt O43613); assay: Potency index, ratio of PE8 Ki to compound Ki for human OX1 receptor
T1 sequence (whole entry): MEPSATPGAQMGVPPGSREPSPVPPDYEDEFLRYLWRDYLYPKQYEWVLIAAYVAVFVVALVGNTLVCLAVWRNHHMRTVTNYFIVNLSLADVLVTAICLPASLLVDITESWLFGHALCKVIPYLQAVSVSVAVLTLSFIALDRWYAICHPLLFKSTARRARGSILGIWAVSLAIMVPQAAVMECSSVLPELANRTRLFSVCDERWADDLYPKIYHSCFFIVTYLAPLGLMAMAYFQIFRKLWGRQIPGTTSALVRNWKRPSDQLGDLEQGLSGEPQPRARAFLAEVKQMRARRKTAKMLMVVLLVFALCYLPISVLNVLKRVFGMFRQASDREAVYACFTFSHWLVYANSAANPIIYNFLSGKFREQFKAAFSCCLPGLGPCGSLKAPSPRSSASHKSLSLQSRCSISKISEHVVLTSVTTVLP

[2] = Displacement of (2S)-N-(2-phenylphenyl)-1-[2-[1-(tritritiomethyl)benzimidazol-2-yl]sulfanylacetyl]pyrrolidine-2-carboxamide from human OX1 receptor Ile408-Val mutant expressed on CHO cell membrane measured after 3 hrs by TopCount method; format: cell membranes
Orexin receptor type 2 [3] = molecular target: T2, Orexin receptor type 2 (Homo sapiens, UniProt O43614); assay: Displacement of (2S)-N-(2-pyrrol-1-ylphenyl)-1-[2-[1-(tritritiomethyl)benzimidazol-2-yl]sulfanylacetyl]pyrrolidine-2-carboxamide from human OX2 receptor expressed on CHO cell membrane measured after 3 hrs by TopCount method; format: cell membranes
T2 sequence (O43614 whole entry): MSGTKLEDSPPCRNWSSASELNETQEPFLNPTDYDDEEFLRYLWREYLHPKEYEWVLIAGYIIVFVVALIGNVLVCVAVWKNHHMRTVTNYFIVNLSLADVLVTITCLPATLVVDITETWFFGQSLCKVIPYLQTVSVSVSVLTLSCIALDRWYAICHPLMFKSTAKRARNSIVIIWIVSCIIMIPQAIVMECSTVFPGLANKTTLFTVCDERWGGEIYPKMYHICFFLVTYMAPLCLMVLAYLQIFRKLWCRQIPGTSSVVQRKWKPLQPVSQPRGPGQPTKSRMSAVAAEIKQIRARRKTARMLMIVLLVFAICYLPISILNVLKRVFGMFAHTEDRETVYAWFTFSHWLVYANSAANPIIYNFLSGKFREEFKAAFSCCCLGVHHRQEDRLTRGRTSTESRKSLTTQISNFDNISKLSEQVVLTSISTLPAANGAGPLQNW

CHO = assay: Selectivity index, ratio of Ki for human OX2 receptor expressed on CHO cell membrane to Ki for Ile408-Val variant human OX1 receptor expressed on CHO cell membrane; format: cell-based
[4] = Intrinsic clearance in rat liver microsomes; format: ADME; conditions: read-out: CLH
[5] = Oral bioavailability in rat at 10 mg/kg; format: ADME, organism-based; conditions: in vivo
[6] = Clearance in rat at 2 mg/kg, iv; format: ADME, organism-based; conditions: in vivo
[7] = Solubility of the compound; format: physicochemical
[8] = Drug metabolism in rat liver microsomes assessed as oxidation of banzamide; format: ADME
[9] = Intrinsic clearance in dog liver microsomes; format: ADME, Canis lupus familiaris; conditions: read-out: CLH
Orexin receptor type 2 [10] = molecular target: T3, Orexin receptor type 2 (Rattus norvegicus, UniProt P56719); format: functional
T3 sequence (P56719 whole entry): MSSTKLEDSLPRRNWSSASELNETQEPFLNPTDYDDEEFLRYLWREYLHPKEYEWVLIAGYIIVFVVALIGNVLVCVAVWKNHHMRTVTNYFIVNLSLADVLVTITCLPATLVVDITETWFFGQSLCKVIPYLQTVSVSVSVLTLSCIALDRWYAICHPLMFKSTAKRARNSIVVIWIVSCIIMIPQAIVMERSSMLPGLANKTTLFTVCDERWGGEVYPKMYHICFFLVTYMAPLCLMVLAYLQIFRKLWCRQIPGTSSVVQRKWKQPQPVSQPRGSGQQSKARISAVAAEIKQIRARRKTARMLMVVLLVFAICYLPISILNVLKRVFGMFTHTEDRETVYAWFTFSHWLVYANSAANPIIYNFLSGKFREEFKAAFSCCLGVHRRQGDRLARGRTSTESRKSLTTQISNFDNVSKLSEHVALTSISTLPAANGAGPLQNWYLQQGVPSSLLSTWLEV
Description: Antagonist activity at rat OX2 receptor assessed as inhibition of Ala-6,12 orexin-A-induced calcium increase preincubated for 5 mins prior to Ala-6,12 orexin-A addition measured at 1 sec intervals for 1 min by Fluo-4AM dye-based FLIPR assay

[11] = Intrinsic clearance in human liver microsomes; format: ADME; conditions: read-out: CLH
[12] = Selectivity index, ratio of IC50 for human OX1 receptor to IC50 for rat OX1 receptor
[13] = Protein binding in dog plasma; format: ADME, cell-free, Canis lupus familiaris; conditions: read-out: PPB (converted)
[14] = molecular target: T4, Orexin/Hypocretin receptor type 1 (Rattus norvegicus, UniProt P56718); assay: Antagonist activity at rat OX1 receptor assessed as inhibition of Ala-6,12 orexin-A-induced calcium increase preincubated for 5 mins prior to Ala-6,12 orexin-A addition measured at 1 sec intervals for 1 min by Fluo-4AM dye-based FLIPR assay; format: functional
T4 sequence (P56718 whole entry): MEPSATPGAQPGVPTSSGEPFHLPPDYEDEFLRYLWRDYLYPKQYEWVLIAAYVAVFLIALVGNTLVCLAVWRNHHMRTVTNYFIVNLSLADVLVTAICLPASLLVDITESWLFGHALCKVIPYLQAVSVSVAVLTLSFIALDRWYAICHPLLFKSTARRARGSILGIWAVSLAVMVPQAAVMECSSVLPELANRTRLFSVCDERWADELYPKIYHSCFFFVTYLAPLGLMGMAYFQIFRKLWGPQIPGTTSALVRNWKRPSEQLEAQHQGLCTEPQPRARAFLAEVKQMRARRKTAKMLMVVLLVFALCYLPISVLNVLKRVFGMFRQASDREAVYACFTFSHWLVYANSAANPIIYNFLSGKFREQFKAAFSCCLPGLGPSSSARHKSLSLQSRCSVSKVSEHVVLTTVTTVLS

[15] = Antagonist activity at human OX1 receptor Ile408-Val mutant expressed on CHO cell membrane assessed as inhibition of Ala-6,12 orexin-A-induced calcium increase preincubated for 5 mins prior to Ala-6,12 orexin-A addition measured at 1 sec intervals for 1 min by Fluo-4AM dye-based FLIPR assay
Orexin receptor type 2 [16] = molecular target: T2, Orexin receptor type 2; format: functional, cell-based, CHO
Description: Antagonist activity at human OX2 receptor expressed on CHO cell membrane assessed as inhibition of Ala-6,12 orexin-A-induced calcium increase preincubated for 5 mins prior to Ala-6,12 orexin-A addition measured at 1 sec intervals for 1 min by Fluo-4AM dye-based FLIPR assay

Rattus norvegicus [17] = organism: Rattus norvegicus; assay: Selectivity index, ratio of IC50 for rat OX2 receptor to IC50 for rat OX1 receptor
[18] = Aqueous solubility of the compound at pH 2; format: physicochemical; conditions: aqueous medium
[19] = Aqueous solubility of the compound at pH 7; format: physicochemical; conditions: aqueous medium
[20] = Protein binding in human plasma; format: ADME, cell-free; conditions: read-out: PPB (converted)
[21] = Intrinsic clearance in rhesus monkey liver microsomes; format: ADME, Macaca mulatta; conditions: read-out: CLH
[22] = Half life in rat at 2 mg/kg, iv or 10 mg/kg, po; format: ADME, organism-based; conditions: in vivo
[23] = Clearance in dog at 0.5 mg/kg, iv or 10 mg/kg, po; format: ADME, organism-based, Canis lupus familiaris; conditions: in vivo
[24] = Half life in dog at 0.5 mg/kg, iv or 10 mg/kg, po; format: ADME, organism-based, Canis lupus familiaris; conditions: in vivo
[25] = Oral bioavailability in dog at 3 mg/kg; format: ADME, organism-based, Canis lupus familiaris; conditions: in vivo
[26] = Clearance in rhesus monkey at 2 mg/kg, iv or 10 mg/kg, po; format: ADME, organism-based, Macaca mulatta; conditions: in vivo
[27] = Half life in rhesus monkey at 2 mg/kg, iv or 10 mg/kg, po; format: ADME, organism-based, Macaca mulatta; conditions: in vivo
[28] = Oral bioavailability in rhesus monkey at 10 mg/kg; format: ADME, organism-based, Macaca mulatta; conditions: in vivo
[29] = Apparent permeability of the compound; format: ADME; conditions: not told
[30] = Protein binding in rat plasma; format: ADME, cell-free; conditions: read-out: PPB (converted)
[31] = Protein binding in rhesus monkey plasma; format: ADME, cell-free, Macaca mulatta; conditions: read-out: PPB (converted)
[32] = molecular target: T5, Orexin/Hypocretin receptor type 1 (Homo sapiens, UniProt O43613); assay: Binding affinity to OX1 receptor (unknown origin)
T5 sequence (O43613 whole entry): T1 sequence (whole entry)

[33] = molecular target: T1, Orexin/Hypocretin receptor type 1 (Homo sapiens); assay: Binding affinity to OX1 receptor (unknown origin) assessed as association rate constant
[34] = molecular target: T1, Orexin/Hypocretin receptor type 1 (Homo sapiens); assay: Binding affinity to OX1 receptor (unknown origin) assessed as dissociation rate constant
[35] = molecular target: Sodium channel protein type 5 subunit alpha (Homo sapiens, UniProt Q14524); assay: Inhibition of Nav1.5 (unknown origin)
[36] = molecular target: Voltage-dependent L-type calcium channel subunit alpha-1C (Homo sapiens, UniProt Q13936); assay: Inhibition of Cav1.2 (unknown origin)
[37] = Oral bioavailability in rhesus monkey at 30 mg/kg; format: ADME, organism-based, Macaca mulatta; conditions: in vivo
Rattus norvegicus [38] = assay: Displacement of (2S)-N-(2-phenylphenyl)-1-[2-[1-(tritritiomethyl)benzimidazol-2-yl]sulfanylacetyl]pyrrolidine-2-carboxamide from human OX1R expressed in transgenic rat brain administered orally; format: functional
[39] = AUC in rat at 10 mg/kg, po; format: ADME, organism-based; conditions: in vivo
[40] = AUC in rat at 20 mg/kg, po; format: ADME, organism-based; conditions: in vivo
[41] = AUC in rat at 50 mg/kg, po; format: ADME, organism-based; conditions: in vivo
[42] = Cmax in rat at 10 mg/kg, po; format: ADME, organism-based; set-up: dose 10 mg/kg, route oral; conditions: in vivo
[43] = Cmax in rat at 20 mg/kg, po; format: ADME, organism-based; set-up: dose 20 mg/kg, route oral; conditions: in vivo
[44] = Cmax in rat at 50 mg/kg, po; format: ADME, organism-based; set-up: dose 50 mg/kg, route oral; conditions: in vivo

Voltage-dependent L-type calcium channel subunit alpha-1C, sequence (Q13936 whole entry): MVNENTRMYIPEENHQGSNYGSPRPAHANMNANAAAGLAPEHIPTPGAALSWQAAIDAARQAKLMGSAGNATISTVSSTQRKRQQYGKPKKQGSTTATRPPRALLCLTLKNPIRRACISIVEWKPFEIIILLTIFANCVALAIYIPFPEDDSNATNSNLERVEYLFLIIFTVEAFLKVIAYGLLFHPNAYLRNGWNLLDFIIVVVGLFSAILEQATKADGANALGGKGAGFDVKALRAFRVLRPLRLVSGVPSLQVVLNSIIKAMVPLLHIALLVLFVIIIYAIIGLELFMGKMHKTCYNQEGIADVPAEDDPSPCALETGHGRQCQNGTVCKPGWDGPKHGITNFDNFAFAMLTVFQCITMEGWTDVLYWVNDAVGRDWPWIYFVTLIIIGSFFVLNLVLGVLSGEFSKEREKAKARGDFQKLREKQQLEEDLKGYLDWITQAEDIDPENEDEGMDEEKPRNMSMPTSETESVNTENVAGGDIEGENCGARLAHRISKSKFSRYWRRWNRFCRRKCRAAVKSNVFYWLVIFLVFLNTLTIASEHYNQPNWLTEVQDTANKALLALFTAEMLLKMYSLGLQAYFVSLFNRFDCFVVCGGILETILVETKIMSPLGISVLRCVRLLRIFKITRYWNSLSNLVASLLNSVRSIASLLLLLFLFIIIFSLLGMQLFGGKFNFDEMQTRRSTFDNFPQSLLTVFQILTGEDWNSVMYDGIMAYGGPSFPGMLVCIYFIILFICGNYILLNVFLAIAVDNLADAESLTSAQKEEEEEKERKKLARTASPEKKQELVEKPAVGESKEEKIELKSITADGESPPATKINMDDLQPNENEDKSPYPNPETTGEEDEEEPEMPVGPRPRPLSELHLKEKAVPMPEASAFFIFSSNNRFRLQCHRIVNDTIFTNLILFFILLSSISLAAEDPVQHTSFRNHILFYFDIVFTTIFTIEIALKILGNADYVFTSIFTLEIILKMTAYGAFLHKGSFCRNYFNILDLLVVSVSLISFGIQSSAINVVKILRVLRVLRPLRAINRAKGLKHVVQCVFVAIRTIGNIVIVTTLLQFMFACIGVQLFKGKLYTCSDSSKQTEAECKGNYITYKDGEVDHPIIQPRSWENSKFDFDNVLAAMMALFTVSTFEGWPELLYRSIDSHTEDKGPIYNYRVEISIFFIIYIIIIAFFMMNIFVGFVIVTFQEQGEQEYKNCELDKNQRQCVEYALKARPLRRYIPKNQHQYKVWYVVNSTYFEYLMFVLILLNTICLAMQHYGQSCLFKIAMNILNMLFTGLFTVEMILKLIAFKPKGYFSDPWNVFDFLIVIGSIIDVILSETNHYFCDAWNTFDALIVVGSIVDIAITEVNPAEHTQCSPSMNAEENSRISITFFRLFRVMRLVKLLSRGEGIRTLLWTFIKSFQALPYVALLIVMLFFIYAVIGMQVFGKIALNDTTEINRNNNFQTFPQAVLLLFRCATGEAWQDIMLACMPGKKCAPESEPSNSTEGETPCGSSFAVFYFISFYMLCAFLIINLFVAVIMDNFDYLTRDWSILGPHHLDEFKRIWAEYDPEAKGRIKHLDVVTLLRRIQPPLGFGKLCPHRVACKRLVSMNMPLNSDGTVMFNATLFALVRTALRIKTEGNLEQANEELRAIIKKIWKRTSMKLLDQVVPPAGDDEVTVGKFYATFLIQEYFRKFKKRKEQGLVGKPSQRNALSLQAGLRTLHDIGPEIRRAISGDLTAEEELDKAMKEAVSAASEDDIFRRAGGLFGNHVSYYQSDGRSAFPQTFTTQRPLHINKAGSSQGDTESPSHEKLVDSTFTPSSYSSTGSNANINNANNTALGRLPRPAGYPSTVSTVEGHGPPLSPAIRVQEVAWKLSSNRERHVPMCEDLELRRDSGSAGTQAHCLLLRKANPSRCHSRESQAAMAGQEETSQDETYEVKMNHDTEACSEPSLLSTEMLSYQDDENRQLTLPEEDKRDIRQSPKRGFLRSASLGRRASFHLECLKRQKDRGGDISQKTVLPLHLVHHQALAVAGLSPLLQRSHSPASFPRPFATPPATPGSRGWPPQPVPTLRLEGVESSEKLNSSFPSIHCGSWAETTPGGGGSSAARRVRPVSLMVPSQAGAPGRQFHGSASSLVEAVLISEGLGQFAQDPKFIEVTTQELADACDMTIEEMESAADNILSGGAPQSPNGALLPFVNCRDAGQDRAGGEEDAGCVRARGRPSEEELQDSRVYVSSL
Sodium channel protein type 5 subunit alpha, sequence (Q14524 whole entry): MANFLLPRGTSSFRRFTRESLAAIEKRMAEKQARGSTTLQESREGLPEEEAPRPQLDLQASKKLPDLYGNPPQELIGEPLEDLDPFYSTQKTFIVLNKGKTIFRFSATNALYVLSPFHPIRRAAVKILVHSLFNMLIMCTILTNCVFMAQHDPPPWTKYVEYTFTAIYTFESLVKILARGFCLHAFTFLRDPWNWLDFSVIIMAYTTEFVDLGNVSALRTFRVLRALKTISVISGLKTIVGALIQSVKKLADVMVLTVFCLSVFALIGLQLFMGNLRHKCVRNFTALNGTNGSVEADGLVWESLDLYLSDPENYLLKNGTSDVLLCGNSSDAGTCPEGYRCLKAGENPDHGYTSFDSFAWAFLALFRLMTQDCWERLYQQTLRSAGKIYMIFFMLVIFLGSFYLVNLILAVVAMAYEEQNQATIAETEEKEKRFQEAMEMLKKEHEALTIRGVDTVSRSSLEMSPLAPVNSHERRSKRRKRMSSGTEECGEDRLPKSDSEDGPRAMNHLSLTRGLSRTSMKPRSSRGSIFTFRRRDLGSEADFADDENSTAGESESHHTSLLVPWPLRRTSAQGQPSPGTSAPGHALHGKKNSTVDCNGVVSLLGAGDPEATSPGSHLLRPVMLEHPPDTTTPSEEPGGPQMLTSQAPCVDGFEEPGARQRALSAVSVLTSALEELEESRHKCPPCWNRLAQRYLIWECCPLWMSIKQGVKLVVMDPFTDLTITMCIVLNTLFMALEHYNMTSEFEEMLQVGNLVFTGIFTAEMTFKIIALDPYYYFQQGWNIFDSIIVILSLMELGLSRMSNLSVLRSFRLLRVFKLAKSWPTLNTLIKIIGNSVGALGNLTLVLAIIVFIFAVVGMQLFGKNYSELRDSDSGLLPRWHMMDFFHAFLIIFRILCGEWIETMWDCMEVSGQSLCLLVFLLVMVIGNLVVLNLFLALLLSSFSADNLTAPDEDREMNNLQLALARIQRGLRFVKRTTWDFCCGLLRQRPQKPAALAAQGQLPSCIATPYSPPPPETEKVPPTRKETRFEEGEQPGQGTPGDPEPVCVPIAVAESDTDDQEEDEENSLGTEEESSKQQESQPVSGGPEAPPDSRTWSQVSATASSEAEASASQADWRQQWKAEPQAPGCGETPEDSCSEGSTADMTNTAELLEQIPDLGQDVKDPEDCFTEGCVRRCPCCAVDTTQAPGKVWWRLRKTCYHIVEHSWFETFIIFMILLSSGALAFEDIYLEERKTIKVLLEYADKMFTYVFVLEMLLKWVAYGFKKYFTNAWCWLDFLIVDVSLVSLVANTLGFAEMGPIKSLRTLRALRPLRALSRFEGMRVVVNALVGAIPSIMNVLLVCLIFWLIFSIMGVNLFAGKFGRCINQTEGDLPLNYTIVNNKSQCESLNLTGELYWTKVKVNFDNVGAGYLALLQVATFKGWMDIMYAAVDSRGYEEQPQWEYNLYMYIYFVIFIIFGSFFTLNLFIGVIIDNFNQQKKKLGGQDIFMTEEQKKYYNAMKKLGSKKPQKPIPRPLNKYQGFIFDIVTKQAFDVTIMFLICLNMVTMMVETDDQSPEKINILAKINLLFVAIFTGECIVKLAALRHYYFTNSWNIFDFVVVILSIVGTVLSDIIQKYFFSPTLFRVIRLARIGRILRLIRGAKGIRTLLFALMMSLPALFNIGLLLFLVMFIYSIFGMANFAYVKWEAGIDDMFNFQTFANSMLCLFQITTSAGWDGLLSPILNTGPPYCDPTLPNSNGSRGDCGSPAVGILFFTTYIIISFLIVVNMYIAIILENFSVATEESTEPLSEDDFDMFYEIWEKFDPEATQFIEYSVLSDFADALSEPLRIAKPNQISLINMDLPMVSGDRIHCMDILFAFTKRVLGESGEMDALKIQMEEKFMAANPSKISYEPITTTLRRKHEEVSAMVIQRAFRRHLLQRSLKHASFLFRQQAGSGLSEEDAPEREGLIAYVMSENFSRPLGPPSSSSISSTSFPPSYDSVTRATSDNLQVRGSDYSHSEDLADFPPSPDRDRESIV

O=C(c1ccccc1-n1cccn1)N1CCC(F)(F)[C@@H](Oc2ccc3ccccc3n2)C1
Ratio Ki [1]: 2
Ki [2]: 0.48 nM
Ki (Orexin receptor type 2 [3]): 271 nM
Ratio Ki (CHO): 564

O=C(c1cccc(-n2ccnn2)c1)N1CCC(F)(F)[C@@H](Oc2ccc3ccccc3n2)C1
CLint scaled [4]: 1200 mL/min/kg
bioavailability [5]: < 1%
clearance [6]: 81 mL/min/kg
Ki [2]: 3.5 nM
Ki (Orexin receptor type 2 [3]): 4310 nM
Ratio Ki (CHO): 1230
solubility [7]: Soluble
Drug metabolism [8]: Metabolite_Detected

O=C(c1nccc2[nH]cnc12)N1CCC(F)(F)[C@@H](Oc2ccc3ccccc3n2)C1
CLint scaled [9]: < 75 mL/min/kg
IC50 (Orexin receptor type 2 [10]): > 10000 nM
CLint scaled [4]: 267 mL/min/kg
CLint scaled [11]: 55 mL/min/kg
Ratio IC50 [12]: 3 to 4
bioavailability [5]: 22%
clearance [6]: 45 mL/min/kg
fraction unbound [13]: 0.2
IC50 [14]: 16 nM
Ki [2]: 5.2 nM
Ki (Orexin receptor type 2 [3]): 2140 nM
Ratio Ki (CHO): 411
IC50 [15]: 58 nM
IC50 (Orexin receptor type 2 [16]): > 10000 nM
Ratio IC50 (Rattus norvegicus [17]): > 625
solubility [18]: 192 µM (≈ 78.6 µg/mL)
solubility [19]: 182 µM (≈ 74.5 µg/mL)
fraction unbound [20]: 0.14
CLint scaled [21]: 189 mL/min/kg
half-life [22]: 3.2 h
clearance [23]: 12 mL/min/kg
half-life [24]: 1 h
bioavailability [25]: 63%
clearance [26]: 25 mL/min/kg
half-life [27]: 2 h
bioavailability [28]: 16%
Papp [29]: 33 ×10⁻⁶ cm/s
fraction unbound [30]: 0.17
fraction unbound [31]: 0.16
Kd [32]: 4.74 nM
K [33]: 4.43 ×10⁷ /M/s
K [34]: 0.21 s⁻¹
Drug metabolism [8]: Metabolite_Notdetected

O=C(c1ccccc1-n1nccn1)N1CCC(F)(F)[C@@H](Oc2ccc3ccccc3n2)C1
IC50 (Orexin receptor type 2 [10]): 1310 to 4180 nM
INH [35]: 6.7 µM
INH [36]: 3.8 µM
fraction unbound [13]: < 0.01
IC50 [14]: 11 nM
Ki [2]: 1.3 nM
Ratio Ki (CHO): 400 to 401
IC50 [15]: 89 nM
IC50 (Orexin receptor type 2 [16]): 4180 nM
Ratio IC50 (Rattus norvegicus [17]): 119
solubility [18]: < 26 µM
solubility [19]: < 26 µM
fraction unbound [20]: < 0.01

O=C(c1cccn2cncc12)N1CCC(F)(F)[C@@H](Oc2ccc3ccccc3n2)C1
CLint scaled [9]: 485 mL/min/kg
Ki (Orexin receptor type 2 [10]): > 10000 nM
CLint scaled [4]: 320 mL/min/kg
CLint scaled [11]: 62 mL/min/kg
Ratio IC50 [12]: 3 to 4
bioavailability [5]: 13%
clearance [6]: 75 mL/min/kg
fraction unbound [13]: 0.08
Ki [14]: 6800 to 10000 nM
Ki [2]: 1.8 nM
Ki (Orexin receptor type 2 [3]): 1010 nM
Ratio Ki (CHO): 561
IC50 [15]: 30 nM
IC50 (Orexin receptor type 2 [16]): > 10000 nM
Ratio IC50 (Rattus norvegicus [17]): > 625
solubility [18]: 194 µM (≈ 79.2 µg/mL)
solubility [19]: 171 µM (≈ 69.8 µg/mL)
fraction unbound [20]: 0.11
CLint scaled [21]: 775 mL/min/kg
half-life [22]: 2.8 h
clearance [23]: 38 mL/min/kg
half-life [24]: 0.5 h
bioavailability [25]: 37%
clearance [26]: 33 mL/min/kg
half-life [27]: 0.8 h
bioavailability [37]: 1%
Papp [29]: 35 ×10⁻⁶ cm/s
fraction unbound [30]: 0.08
fraction unbound [31]: 0.06
Kd [32]: 0.94 nM
K [33]: 1.08 ×10⁸ /M/s
K [34]: 0.102 s⁻¹
Occ50 (Rattus norvegicus [38]): 0.032 µM
AUC [39]: 0.77 µM·h
AUC [40]: 8.3 µM·h
AUC [41]: 153 µM·h
Cmax [42]: 0.73 µM
Cmax [43]: 5 µM
Cmax [44]: 24 µM

From ChEMBL document CHEMBL3867477 (Bioorg Med Chem Lett, 2016)
